In patent US20110082133A1, “PYRIDONE COMPOUNDS” (priority 2008, published 2011):
Structures can show the parent of a compound that is named as a salt.

Target: T1, rat EP2 receptor (Rattus norvegicus, UniProt Q62928)
T1 construct: expressed in transfected cells
Assay: Rat EP2 receptor agonistic/antagonistic action (cAMP assay, CHO-K1 stable expression cells)
Assay type: cell-based
Conditions: cAMP increasing action, 1 μM PGE2 taken as 100%, NE means that the action has no significance
Protocol: For a rat EP2 receptor, stable expression cells were used to carry out a cAMP assay. The agonistic activity was evaluated by the cAMP increasing action by the test compound, and the antagonistic activity was evaluated by the inhibiting action of the test compound on the cAMP increasing action by PGE2.
The rat EP2 receptor cDNA was subcloned into an expression vector (pcDNA3.1-V5-His-topo, manufactured by Invitrogen Corporation). This expression vector was introduced into CHO-K1 cells (American Type Culture Collection) to prepare a rat EP2 receptor stable expression cell line. These cells were seeded onto a 96-well microplate at 0.5×10^4 cell/well, and used for the experiment the next day. The culture medium of each well was removed by suction, 100 μL/well of an assay culture medium (α-MEM containing 2 μM indomethacin and 0.1% bovine serum albumin) was added thereto, and incubated at 37° C. for 1 hour. The culture medium was removed again by suction, and replaced with 100 μL/well of an assay culture medium containing a test compound and 1 mM IBMX. […] Using a cAMP femto 2 kit (manufactured by Cis Bio International), the cAMP concentration in the cell lysate was measured. In this connection, the cAMP increasing action (%) was calculated with the cAMP increasing action by 1 μM PGE2 was taken as 100%.

T1 sequence (Q62928 whole entry): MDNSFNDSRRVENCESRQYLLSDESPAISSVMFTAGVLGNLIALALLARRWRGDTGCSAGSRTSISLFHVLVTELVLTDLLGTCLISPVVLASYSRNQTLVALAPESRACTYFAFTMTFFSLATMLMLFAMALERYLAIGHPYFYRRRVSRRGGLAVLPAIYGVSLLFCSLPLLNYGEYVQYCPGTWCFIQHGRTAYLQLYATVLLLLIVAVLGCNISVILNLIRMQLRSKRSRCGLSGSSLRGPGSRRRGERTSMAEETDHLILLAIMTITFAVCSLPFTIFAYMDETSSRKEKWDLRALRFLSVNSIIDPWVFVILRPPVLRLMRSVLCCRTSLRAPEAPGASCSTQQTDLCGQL

| Structure (SMILES) | Rat EP2 Agonistic Action 10 μM |
| --- | --- |
| CCC[C@H]1CCCN1Cc1c(Cl)cc(Cl)c(=O)n1CCc1ccc(C(=O)O)cc1 [Example 17, 4-{2-[3,5-dichloro-2-oxo-6-{[(2S)-2-propylpyrrolidin-1-yl]methyl}pyridin-1(2H)-yl]ethyl}benzoic acid trifluoroacetate] | 14% |
| CN(Cc1c(Cl)cc(Cl)c(=O)n1CCc1ccc(C(=O)O)cc1)c1cccc(Cl)c1 [Example 160] | 19% |
